Assay results taken from article PMC9798004 (Frontiers in Psychiatry, 2022).

Columns and labels:
[1] = target: T1, MTNR1A (Homo sapiens, UniProt P48039); assay: PathHunter β-arrestin assay; format: cell-based; settings: screen, control agonist; CHO, 37C, 2HR
T1 construct: purchased Eurofins DiscoverX (PathHunter gpcrMAX)

[2] = tested on: CB1; design: method as in PMID 20599795; settings: 10 nM, 15 min application; not recovered up to 5 h later; cited from earlier work
[3] = target: HRH2 (Homo sapiens, UniProt P25021); assay: PathHunter β-arrestin assay; format: cell-based; settings: control agonist
[4] = target: HRH4 (Homo sapiens, UniProt Q9H3N8); settings: screen, control agonist; U20S, 37C, 4HR
[5] = target: OXTR (Homo sapiens, UniProt P30559); assay: PathHunter β-arrestin assay; format: cell-based; settings: follow-up assays, control antagonist
[6] = target: T2, LTB4R (Homo sapiens, UniProt Q15722); assay: PathHunter β-arrestin assay; format: cell-based; settings: screen, control agonist; CHO, 37C, 2HR
T2 construct: purchased Eurofins DiscoverX (PathHunter gpcrMAX)

[7] = target: HCRTR2 (Homo sapiens, UniProt O43614); assay: PathHunter β-arrestin assay; format: cell-based; settings: follow-up assays, control antagonist
[8] = target: T3, HCRTR1 (Homo sapiens, UniProt O43613); assay: PathHunter β-arrestin assay; format: cell-based; settings: follow-up assays, control antagonist
T3 sequence (O43613 1-425): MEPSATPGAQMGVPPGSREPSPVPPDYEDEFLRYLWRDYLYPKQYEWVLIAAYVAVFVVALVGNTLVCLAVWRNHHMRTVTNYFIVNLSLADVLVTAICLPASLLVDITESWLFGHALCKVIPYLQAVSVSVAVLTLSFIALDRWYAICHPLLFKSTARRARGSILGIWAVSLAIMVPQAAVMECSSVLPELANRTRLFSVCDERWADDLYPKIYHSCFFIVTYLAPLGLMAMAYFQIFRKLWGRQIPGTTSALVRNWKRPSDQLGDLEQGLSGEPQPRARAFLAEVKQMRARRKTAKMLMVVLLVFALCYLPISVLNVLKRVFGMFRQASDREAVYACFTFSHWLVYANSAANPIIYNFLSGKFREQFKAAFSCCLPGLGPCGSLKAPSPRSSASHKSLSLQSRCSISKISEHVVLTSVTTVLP
Procedure: Follow up experiments were prioritized based on the difference between S/N and CoV. Targets with a >5-fold difference between S/N and CoV were investigated for their potential contribution to the AMB-FUBINACA toxidrome with 10-point concentration-response curves generated in technical replicate (range 1.5–30 μM) using the EC80 of the relevant agonist, where applicable in antagonist mode. Simultaneous agonist and antagonist curves were run in parallel to ensure reliability of the assay (see Supplementary Table 2), with both RC50 and signal to background aligning with historical averages, and Z' >0.5. RC50 was estimated using a four-parameter fit (CBIS Data Analysis Suite, ChemInnovation, San Diego, CA) on normalized data.

[9] = target: UTR2 (Homo sapiens, UniProt Q9UKP6); assay: PathHunter β-arrestin assay; format: cell-based; settings: follow-up assays, control antagonist
[10] = target: T4, HTR2A (Homo sapiens, UniProt P28223); assay: PathHunter β-arrestin assay; format: cell-based; settings: screen, control agonist; U20S, 37C, 2HR
T4 construct: purchased Eurofins DiscoverX (PathHunter gpcrMAX)

[11] = target: T5, HTR1E (Homo sapiens, UniProt P28566); assay: PathHunter β-arrestin assay; format: cell-based; settings: screen, control agonist; U20S, 37C, 2HR
T5 construct: purchased Eurofins DiscoverX (PathHunter gpcrMAX)

[12] = target: T6, HTR1B (Homo sapiens, UniProt P28222); assay: PathHunter β-arrestin assay; format: cell-based; settings: screen, control agonist; U20S, 37C, 2HR
T6 construct: purchased Eurofins DiscoverX (PathHunter gpcrMAX)

[13] = target: T7, HTR1F (Homo sapiens, UniProt P30939); assay: PathHunter β-arrestin assay; format: cell-based; settings: screen, control agonist; U20S, 37C, 2HR
T7 construct: purchased Eurofins DiscoverX (PathHunter gpcrMAX)

[14] = target: T8, HTR5A (Homo sapiens, UniProt P47898); assay: PathHunter β-arrestin assay; format: cell-based; settings: screen, control agonist; U20S, 37C, 2HR
T8 construct: purchased Eurofins DiscoverX (PathHunter gpcrMAX)

[15] = target: T9, HTR1A (Homo sapiens, UniProt P08908); assay: PathHunter β-arrestin assay; format: cell-based; settings: screen, control agonist; CHO, 37C, 2HR
T9 construct: purchased Eurofins DiscoverX (PathHunter gpcrMAX)

[16] = target: T10, ADORA3 (Homo sapiens, UniProt P0DMS8); assay: PathHunter β-arrestin assay; format: cell-based; settings: follow-up assays, control antagonist
T10 construct: host or cells: CHO
T10 sequence (P0DMS8 whole entry): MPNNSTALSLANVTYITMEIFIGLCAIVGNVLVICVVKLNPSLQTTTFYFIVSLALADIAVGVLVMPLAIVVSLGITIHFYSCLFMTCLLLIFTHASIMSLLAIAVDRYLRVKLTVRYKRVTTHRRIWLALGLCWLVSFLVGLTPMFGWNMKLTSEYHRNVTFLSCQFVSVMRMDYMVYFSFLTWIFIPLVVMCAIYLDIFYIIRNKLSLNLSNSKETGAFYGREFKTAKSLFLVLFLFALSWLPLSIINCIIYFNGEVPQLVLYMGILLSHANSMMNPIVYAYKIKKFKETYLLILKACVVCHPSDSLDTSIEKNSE

HRH2, sequence (P25021 whole entry): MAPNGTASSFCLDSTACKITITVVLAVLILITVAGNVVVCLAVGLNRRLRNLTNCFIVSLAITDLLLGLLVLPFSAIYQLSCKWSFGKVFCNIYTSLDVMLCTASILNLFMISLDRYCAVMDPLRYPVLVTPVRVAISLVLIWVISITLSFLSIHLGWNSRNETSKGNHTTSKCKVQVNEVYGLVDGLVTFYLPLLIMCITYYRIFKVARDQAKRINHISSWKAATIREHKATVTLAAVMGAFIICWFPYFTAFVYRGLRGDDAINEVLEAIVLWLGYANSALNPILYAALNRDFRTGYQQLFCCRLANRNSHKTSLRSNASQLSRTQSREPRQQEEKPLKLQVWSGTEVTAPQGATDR
UTR2, sequence (Q9UKP6 whole entry): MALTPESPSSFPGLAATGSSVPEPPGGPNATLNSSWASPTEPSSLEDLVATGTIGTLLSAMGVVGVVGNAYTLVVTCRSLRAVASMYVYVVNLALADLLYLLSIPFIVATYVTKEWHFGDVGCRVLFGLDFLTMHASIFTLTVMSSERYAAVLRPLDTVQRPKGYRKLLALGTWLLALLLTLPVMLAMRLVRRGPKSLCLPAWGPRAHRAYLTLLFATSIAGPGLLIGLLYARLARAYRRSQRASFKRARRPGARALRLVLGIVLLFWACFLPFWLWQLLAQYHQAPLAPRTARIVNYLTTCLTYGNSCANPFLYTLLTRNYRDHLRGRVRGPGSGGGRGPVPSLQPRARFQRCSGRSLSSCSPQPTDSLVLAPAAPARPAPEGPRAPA
T7 sequence (P30939 whole entry): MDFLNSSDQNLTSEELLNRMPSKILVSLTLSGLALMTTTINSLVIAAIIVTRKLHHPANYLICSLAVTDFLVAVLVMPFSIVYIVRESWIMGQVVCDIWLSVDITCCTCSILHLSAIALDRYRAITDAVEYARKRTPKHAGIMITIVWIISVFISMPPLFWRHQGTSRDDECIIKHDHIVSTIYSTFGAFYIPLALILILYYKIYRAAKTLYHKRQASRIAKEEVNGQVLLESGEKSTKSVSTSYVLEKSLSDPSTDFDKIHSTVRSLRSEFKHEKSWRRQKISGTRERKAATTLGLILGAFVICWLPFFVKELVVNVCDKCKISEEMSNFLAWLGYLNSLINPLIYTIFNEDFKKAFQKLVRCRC
HCRTR2, sequence (O43614 whole entry): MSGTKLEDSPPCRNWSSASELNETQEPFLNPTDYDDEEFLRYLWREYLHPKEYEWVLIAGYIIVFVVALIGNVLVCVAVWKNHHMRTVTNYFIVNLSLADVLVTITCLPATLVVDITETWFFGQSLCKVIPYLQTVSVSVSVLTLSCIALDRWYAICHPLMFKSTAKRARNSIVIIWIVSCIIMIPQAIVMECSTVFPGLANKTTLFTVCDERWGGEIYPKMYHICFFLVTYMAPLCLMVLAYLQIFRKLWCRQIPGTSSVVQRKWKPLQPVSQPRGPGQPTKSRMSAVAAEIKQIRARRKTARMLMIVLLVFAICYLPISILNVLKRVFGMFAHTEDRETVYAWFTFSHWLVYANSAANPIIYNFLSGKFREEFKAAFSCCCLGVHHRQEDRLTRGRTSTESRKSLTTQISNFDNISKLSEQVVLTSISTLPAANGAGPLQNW
HRH4, sequence (Q9H3N8 whole entry): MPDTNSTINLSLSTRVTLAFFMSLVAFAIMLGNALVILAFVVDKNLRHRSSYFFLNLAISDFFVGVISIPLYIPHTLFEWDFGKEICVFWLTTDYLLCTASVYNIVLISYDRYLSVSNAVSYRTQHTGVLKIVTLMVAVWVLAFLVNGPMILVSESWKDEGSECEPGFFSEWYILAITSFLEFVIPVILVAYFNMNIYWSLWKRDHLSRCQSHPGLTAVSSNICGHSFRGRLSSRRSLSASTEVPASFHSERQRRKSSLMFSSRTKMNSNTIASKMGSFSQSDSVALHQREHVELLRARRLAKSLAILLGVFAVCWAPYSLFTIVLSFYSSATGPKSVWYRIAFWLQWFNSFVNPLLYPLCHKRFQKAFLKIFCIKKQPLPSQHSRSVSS
OXTR, sequence (P30559 whole entry): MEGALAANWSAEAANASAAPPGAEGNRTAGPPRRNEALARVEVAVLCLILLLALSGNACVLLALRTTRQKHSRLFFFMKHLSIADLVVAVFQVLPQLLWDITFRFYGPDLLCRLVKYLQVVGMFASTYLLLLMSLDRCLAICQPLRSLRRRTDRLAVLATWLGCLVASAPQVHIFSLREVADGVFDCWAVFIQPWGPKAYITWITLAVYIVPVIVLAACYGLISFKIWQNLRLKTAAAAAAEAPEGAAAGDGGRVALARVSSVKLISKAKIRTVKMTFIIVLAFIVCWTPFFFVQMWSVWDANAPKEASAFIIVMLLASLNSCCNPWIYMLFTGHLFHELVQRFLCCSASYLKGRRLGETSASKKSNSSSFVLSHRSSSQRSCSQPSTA
T2 sequence (Q15722 whole entry): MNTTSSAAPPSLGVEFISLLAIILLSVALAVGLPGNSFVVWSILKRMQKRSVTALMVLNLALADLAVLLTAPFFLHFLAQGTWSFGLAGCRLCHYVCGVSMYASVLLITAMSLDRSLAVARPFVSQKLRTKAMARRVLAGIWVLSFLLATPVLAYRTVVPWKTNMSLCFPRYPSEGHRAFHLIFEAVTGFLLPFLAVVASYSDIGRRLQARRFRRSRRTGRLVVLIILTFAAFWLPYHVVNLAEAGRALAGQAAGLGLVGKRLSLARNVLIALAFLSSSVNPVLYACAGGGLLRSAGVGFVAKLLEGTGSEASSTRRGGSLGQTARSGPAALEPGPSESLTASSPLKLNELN
T5 sequence (P28566 whole entry): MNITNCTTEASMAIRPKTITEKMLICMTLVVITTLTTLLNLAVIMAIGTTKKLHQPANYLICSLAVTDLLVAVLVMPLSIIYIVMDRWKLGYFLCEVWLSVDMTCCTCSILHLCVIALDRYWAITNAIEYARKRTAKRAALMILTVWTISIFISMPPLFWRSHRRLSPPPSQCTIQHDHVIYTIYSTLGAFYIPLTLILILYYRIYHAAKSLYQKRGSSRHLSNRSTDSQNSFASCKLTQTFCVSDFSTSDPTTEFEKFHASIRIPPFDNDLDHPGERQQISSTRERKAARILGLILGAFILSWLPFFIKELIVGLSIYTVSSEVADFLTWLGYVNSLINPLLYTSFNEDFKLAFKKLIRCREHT
T4 sequence (P28223 whole entry, looked up): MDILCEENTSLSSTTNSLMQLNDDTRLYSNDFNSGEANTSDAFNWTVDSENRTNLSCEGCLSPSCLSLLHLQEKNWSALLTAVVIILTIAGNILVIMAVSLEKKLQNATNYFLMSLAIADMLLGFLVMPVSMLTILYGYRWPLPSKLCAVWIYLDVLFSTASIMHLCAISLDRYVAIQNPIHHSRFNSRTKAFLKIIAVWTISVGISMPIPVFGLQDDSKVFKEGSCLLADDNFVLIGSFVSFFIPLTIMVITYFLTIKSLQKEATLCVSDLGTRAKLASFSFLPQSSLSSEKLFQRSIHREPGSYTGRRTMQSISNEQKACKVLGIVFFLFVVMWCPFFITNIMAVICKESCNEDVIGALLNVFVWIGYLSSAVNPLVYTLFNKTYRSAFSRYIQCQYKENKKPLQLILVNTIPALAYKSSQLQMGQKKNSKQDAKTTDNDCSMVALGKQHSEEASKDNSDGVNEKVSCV
T9 sequence (P08908 whole entry): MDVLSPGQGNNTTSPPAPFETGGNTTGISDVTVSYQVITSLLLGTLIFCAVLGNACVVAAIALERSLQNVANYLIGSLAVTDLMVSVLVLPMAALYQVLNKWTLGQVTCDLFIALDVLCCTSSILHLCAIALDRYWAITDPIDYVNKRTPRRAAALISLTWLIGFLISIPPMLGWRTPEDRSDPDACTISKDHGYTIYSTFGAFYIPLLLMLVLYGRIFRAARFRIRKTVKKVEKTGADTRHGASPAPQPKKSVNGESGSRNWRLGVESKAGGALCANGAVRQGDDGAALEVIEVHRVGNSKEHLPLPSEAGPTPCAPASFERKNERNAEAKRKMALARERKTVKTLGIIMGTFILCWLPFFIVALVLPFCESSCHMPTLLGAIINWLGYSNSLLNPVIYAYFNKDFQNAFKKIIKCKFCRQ
T6 sequence (P28222 whole entry): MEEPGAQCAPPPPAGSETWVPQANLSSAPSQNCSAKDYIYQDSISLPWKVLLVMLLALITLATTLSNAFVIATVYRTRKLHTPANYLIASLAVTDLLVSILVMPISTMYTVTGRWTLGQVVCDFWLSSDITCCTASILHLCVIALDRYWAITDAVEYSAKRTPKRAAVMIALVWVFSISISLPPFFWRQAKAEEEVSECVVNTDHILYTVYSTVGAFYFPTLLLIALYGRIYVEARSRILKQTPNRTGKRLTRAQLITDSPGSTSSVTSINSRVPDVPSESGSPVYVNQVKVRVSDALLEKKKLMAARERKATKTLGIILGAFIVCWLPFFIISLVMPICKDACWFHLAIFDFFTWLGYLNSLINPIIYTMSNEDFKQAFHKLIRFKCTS

Work on `COc1ccc2[nH]c(I)c(CCNC(C)=O)c2c1` [2-Iodomelatonin] yielded an EC80 [1] of 2.77 nM.

For `CCCCCCC(C)(C)c1cc(O)c2c(c1)OC(C)(C)[C@@H]1CC=C(CO)C[C@@H]21` [HU210], the CB1 internalization [2] is given as “near maximal internalization”.

Compound `NCCc1c[nH]cn1` [Histamine] has an EC80 ([3]; follow-up concentration-response assays) of 10.722 µM, an EC80 ([3]; screen, CHO, RT, 2HR) of 10.7 µM and an EC80 [4] of 0.102 µM.

In the case of `Cc1ccccc1N1CCN(S(=O)(=O)C[C@]23CC[C@H](C[C@@H]2NC(=O)[C@@H](N)CCS(C)(=O)=O)C3(C)C)CC1` [L-368,899], the IC50 [5] is reported as 7.39 nM.

In the case of `CCCCC/C=C\C[C@@H](O)/C=C/C=C/C=C\[C@@H](O)CCCC(=O)O` [Leukotriene B4], the EC80 [6] is reported as 0.456 µM.

In the case of `Cc1cc(NC(=O)Nc2ccc(N(C)C)cc2)c2cc(F)cc(F)c2n1` [SB 408124], the IC50 [7] is reported as 11.5 µM and the IC50 [8] is reported as 74.4 nM.

For `COc1cc(Br)c(S(=O)(=O)Nc2ccc(Cl)c(O[C@@H]3CCN(C)C3)c2)cc1OC` [SB 657510], the IC50 [9] was 122 nM.

`NCCc1c[nH]c2ccc(O)cc12` [Serotonin / 5-HT, Serotonin] gave an EC80 [10] of 0.171 µM, an EC80 [11] of 0.0216 µM and an EC80 [12] of 0.173 µM. The EC80 [13] was 0.127 µM, the EC80 [14] was 0.0264 µM and the EC80 [15] was 0.377 µM.

Work on `COc1ccccc1NC(=O)Nc1nc(-c2cccnc2)nc2ccccc12` [VUF 5574] yielded an IC50 [16] of 3.73 nM.
